We go through three compounds from US8084627B2, “Hydroxymethyl fluorescein derivatives for use as biological markers and dyes” (University of Pittsburgh-of the Commonwealth System of …, priority 2007, dated 2011).

Data set [1] relates to live human cells. To be noted: compared with Tokyo Green; cited from earlier work.
For data set [2] the following is noted: carboxyl group replaced with methyl group; cited from earlier work.
Data set [3] concerns Zebrafish embryos. Description: Zebrafish embryo staining: localization and tissue permeability. The format is in vivo. As to conditions: confocal projections of head and tail, 80 μm of embryonic interior. The source says: Zebrafish embryos were stained with compound 3 and compound 4 in order to assess the localization and tissue permeability of each compound in vivo. This procedure had not previously been attempted in zebrafish embryos with an unconjugated fluorescein derivative. Therefore, the commercially available BODIPY TR methyl ester was used as a control stain since it has been successfully used for this purpose.[10] […] Yolk sacs and yolk extensions always appeared brighter than the embryos themselves (FIG. 3A-C). This is likely the result of compound accumulation within the lipidic yolk platelets that comprise almost the entire volume of the yolk.[11]
Structures containing little organic material, including scales and calcified otoliths, were not stained. Confocal sections of the dorsal midline (FIG. 3H, J, L) indicate that the notochord sheath and surrounding tissue are efficiently labeled, while the notochord vacuoles remain unstained.

Take `Cc1ccccc1-c1c2cc(F)c(=O)cc-2oc2cc(O)c(F)cc12` [Pennsylvania Green]: the “fluorescence in live human cells” value in data set [1] is “more fluorescent than Tokyo Green”.

Consider `Cc1ccccc1-c1c2ccc(=O)cc-2oc2cc(O)ccc12` [Tokyo Green], for which the “quantum yield relative to fluorescein” value in data set [2] is on record as “no loss of quantum yield”.

For `COC(=O)COc1ccc(C2=[N+]3C(=Cc4ccc(-c5cccs5)n4[B-]3(F)F)C=C2)cc1` [BODIPY TR methyl ester], the “permeation of live tissue” value in data set [3] was “permeate live tissue to similar extents”.
